Test results: patent EP4745135A1 (Gluetacs Therapeutics (Shanghai) Co., Ltd., priority 2023, dated 2025)

Columns and labels:
CK1α = biological target: T1, CK1α (Homo sapiens, UniProt P48729+Q96SW2); assay: Western blot, degradation of substrate protein in hPBMCs; format: cell-based; details: 24 hours treatment, compounds at 50 nM and 500 nM (concentration behind the class not stated)
T1 construct: effects of the compounds of the present disclosure on the expression of target proteins in cells; endogenous in cells; host or cells: human PBMCs (Milecell Biotechnologies)
T1 sequence (P48729 whole entry): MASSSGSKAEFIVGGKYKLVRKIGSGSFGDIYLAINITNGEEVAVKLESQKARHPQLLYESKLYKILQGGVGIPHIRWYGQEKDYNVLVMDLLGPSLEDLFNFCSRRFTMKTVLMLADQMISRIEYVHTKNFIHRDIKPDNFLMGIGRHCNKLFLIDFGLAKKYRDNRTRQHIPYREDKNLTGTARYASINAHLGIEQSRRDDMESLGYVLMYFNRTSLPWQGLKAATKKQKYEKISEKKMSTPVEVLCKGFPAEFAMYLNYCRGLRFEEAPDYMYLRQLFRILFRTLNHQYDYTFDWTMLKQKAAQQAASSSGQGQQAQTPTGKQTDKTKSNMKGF
T1 sequence (Q96SW2 whole entry): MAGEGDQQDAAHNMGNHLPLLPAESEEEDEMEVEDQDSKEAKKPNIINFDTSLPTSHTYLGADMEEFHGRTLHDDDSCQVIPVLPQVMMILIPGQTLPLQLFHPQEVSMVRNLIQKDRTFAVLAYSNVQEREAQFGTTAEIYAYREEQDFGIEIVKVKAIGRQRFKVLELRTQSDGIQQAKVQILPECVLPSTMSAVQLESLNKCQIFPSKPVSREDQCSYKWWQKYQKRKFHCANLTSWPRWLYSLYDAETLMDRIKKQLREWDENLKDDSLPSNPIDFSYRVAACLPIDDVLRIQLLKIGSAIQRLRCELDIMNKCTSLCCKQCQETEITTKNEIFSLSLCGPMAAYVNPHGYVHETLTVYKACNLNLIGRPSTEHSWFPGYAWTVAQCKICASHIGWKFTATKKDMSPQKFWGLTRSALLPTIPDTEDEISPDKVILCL
T1 sequence (Q16531 whole entry partner): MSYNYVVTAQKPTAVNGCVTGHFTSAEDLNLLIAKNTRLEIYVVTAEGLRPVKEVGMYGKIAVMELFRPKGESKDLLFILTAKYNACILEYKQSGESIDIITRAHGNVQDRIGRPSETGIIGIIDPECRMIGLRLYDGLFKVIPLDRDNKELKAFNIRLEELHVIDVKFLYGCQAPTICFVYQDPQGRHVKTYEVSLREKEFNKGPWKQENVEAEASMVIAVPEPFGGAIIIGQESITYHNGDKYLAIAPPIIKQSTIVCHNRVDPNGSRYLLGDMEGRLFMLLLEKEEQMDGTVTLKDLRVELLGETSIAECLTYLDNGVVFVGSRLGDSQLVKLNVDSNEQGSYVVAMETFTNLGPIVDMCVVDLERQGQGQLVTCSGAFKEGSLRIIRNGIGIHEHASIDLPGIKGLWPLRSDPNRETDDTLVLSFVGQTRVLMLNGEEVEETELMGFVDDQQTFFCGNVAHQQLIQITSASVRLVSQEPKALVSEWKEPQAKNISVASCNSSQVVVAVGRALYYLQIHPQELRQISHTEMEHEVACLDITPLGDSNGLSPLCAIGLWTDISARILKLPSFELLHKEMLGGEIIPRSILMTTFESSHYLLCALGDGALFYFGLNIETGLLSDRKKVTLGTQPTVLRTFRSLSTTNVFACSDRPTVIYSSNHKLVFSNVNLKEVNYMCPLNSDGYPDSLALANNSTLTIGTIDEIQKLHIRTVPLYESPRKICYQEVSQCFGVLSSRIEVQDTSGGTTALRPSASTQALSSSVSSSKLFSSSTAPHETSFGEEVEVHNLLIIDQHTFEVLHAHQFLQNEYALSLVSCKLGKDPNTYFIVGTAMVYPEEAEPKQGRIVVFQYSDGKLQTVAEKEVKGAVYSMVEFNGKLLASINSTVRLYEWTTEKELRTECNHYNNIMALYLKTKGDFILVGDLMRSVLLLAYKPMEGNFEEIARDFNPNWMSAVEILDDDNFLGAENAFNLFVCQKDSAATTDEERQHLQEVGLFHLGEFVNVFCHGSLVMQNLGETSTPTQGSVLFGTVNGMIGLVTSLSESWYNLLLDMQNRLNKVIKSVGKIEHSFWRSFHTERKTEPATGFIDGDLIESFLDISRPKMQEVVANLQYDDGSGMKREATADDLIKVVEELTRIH

IKZF1 = biological target: T2, IKZF1 (Homo sapiens, UniProt Q13422+Q96SW2); assay: as above; format: cell-based; details: 24 hours treatment, compounds at 50 nM and 500 nM (concentration behind the class not stated)
T2 construct: effects of the compounds of the present disclosure on the expression of target proteins in cells; endogenous in cells; host or cells: human PBMCs (Milecell Biotechnologies)
T2 sequence (Q13422 whole entry): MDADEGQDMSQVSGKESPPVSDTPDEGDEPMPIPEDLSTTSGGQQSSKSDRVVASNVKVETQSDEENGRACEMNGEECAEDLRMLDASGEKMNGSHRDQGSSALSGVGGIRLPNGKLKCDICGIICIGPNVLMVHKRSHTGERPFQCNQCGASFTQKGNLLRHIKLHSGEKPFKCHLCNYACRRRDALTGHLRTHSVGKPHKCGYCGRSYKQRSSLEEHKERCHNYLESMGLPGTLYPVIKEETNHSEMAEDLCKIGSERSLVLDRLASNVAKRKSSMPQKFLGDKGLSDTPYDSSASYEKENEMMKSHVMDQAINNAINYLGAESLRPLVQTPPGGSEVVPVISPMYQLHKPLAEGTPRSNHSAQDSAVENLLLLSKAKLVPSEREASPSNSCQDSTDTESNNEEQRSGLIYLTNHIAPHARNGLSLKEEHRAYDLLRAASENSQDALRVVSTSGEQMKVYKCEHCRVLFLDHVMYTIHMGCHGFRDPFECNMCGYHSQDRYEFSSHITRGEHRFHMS
T2 sequence (Q96SW2 whole entry): as the sequence (Q96SW2 whole entry) above
T2 sequence (Q16531 whole entry partner): as the sequence (Q16531 whole entry partner) above

IKZF2 = biological target: T3, IKZF2 (Homo sapiens, UniProt Q96SW2+Q9UKS7); assay: as above; format: cell-based; details: 24 hours treatment, compounds at 50 nM and 500 nM (concentration behind the class not stated)
T3 construct: effects of the compounds of the present disclosure on the expression of target proteins in cells; endogenous in cells; host or cells: human PBMCs (Milecell Biotechnologies)
T3 sequence (Q9UKS7 whole entry): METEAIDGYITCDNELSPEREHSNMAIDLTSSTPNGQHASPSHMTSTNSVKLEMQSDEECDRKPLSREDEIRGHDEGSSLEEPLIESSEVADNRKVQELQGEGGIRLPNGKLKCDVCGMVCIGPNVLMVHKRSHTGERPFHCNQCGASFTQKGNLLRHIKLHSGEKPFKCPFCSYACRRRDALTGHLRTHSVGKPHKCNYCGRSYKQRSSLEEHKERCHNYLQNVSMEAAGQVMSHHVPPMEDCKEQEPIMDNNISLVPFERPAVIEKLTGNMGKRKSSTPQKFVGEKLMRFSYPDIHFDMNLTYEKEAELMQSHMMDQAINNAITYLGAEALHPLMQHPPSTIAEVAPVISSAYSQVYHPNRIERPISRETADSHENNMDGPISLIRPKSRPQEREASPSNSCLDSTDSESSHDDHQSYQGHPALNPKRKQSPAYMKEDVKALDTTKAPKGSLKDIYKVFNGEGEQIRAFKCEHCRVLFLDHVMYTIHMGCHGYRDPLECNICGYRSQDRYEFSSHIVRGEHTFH
T3 sequence (Q96SW2 whole entry): as the sequence (Q96SW2 whole entry) above
T3 sequence (Q16531 whole entry partner): as the sequence (Q16531 whole entry partner) above

IKZF3 = biological target: T4, IKZF3 (Homo sapiens, UniProt Q96SW2+Q9UKT9); assay: as above; format: cell-based; details: 24 hours treatment, compounds at 50 nM and 500 nM (concentration behind the class not stated)
T4 construct: effects of the compounds of the present disclosure on the expression of target proteins in cells; endogenous in cells; host or cells: human PBMCs (Milecell Biotechnologies)
T4 sequence (Q9UKT9 whole entry): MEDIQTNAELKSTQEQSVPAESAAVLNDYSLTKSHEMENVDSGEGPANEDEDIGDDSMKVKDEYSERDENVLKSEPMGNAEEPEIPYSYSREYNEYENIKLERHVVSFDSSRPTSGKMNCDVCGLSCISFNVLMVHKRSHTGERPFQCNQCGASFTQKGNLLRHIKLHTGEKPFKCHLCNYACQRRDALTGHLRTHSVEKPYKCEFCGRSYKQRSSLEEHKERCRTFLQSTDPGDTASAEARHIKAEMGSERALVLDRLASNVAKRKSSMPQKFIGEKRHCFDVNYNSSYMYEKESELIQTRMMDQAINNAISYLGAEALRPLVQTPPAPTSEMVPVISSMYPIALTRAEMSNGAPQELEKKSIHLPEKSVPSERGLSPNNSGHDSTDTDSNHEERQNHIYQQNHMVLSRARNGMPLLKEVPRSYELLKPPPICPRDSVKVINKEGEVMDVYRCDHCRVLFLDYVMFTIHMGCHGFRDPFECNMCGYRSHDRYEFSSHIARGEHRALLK
T4 sequence (Q96SW2 whole entry): as the sequence (Q96SW2 whole entry) above
T4 sequence (Q16531 whole entry partner): as the sequence (Q16531 whole entry partner) above

WEE1 = biological target: T5, WEE1 (Homo sapiens, UniProt P30291+Q96SW2); assay: as above; format: cell-based; details: 24 hours treatment, compounds at 50 nM and 500 nM (concentration behind the class not stated)
T5 construct: effects of the compounds of the present disclosure on the expression of target proteins in cells; endogenous in cells; host or cells: human PBMCs (Milecell Biotechnologies)
T5 sequence (P30291 whole entry): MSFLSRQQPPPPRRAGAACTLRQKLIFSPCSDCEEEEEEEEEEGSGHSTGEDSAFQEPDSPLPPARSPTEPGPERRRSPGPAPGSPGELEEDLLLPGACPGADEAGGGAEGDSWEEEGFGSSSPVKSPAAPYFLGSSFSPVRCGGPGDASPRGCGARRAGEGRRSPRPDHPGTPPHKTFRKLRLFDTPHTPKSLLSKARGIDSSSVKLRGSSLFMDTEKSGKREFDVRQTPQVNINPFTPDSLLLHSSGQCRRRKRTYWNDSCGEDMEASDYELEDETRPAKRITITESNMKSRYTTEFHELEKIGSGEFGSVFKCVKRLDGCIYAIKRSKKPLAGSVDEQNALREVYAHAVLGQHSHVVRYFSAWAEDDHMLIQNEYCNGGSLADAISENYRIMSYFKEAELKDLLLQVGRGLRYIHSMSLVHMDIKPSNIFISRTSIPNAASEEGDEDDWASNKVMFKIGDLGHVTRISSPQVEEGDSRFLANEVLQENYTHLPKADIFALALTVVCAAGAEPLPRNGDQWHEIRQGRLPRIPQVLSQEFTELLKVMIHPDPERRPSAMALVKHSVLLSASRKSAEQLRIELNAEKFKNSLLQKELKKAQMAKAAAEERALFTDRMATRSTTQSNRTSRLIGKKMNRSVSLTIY
T5 sequence (Q96SW2 whole entry): as the sequence (Q96SW2 whole entry) above
T5 sequence (Q16531 whole entry partner): as the sequence (Q16531 whole entry partner) above

GSPT1 = assay: as above; format: cell-based, Human; details: 24 hours treatment, compounds at 50 nM and 500 nM (concentration behind the class not stated)
[1] = biological target: T6, human Cereblon WT GST-tagged protein (Homo sapiens, UniProt Q96SW2); assay: CRBN-binding affinity, HTRF (CEREBLON BINDING kit); details: for inhibition at 0.5 µM: read-out: Inhibition Rate at 0.5 µM (%); for inhibition at 2 µM: read-out: Inhibition Rate at 2 µM (%)
T6 construct: purchased CISBIO 64BDCRBNPEH
T6 sequence (Q96SW2 whole entry): as the sequence (Q96SW2 whole entry) above

Row | Compound | inhibition at 0.5 µM [1] [%] | inhibition at 2 µM [1] [%] | CK1α substrate protein remaining % (CK1α) | IKZF 1 substrate protein remaining % (IKZF1) | IKZF2 substrate protein remaining % (IKZF2) | IKZF3 substrate protein remaining % (IKZF3) | Wee1 substrate protein remaining % (WEE1) | GSPT1 substrate protein remaining % (GSPT1)
1 | Cc1sc2ncnc(C3=CCN(Cc4cccc5c4CN(C4CCC(=O)NC4=O)C5=S)CC3)c2c1C (stereo not shown) [GT-08955, 3-(4-((4-(5,6-dimethylthieno[2,3-d]pyrimidin-4-yl)-3,6-dihydropyridin-1(2H)-yl)methyl)-1-thioxoisoindolin-2-yl)piperidine-2,6-dione] | 40 to 53 | 60 to 80 | B (80%< substrate protein remaining %≤ 100%) | B (80%< substrate protein remaining %≤ 100%) | B (80%< substrate protein remaining %≤ 100%) | B (80%< substrate protein remaining %≤ 100%) | A (0% ≤ substrate protein remaining % ≤ 80%) | B (80%< substrate protein remaining %≤ 100%)
2 | O=C1CCC(N2Cc3c(CN4CC=C(c5ncnc6scc(-c7ccccc7)c56)CC4)cccc3C2=S)C(=O)N1 (stereo not shown) [GT-08957, 3-(4-((4-(5-phenylthieno[2,3-d]pyrimidin-4-yl)-3,6-dihydropyridin-1(2H)-yl)methyl)-1-thioxoisoindolin-2-yl)piperidine-2,6-dione] | 60 to 80 | 80 to 100 | B (80%< substrate protein remaining %≤ 100%) | B (80%< substrate protein remaining %≤ 100%) | B (80%< substrate protein remaining %≤ 100%) | B (80%< substrate protein remaining %≤ 100%) | A (0% ≤ substrate protein remaining % ≤ 80%) | B (80%< substrate protein remaining %≤ 100%)
3 | Cc1nc(C2=CCN(Cc3cccc4c3CN(C3CCC(=O)NC3=O)C4=S)CC2)c2c(-c3ccccc3)csc2n1 (stereo not shown) [GT-08958, 3-(4-((4-(2-methyl-5-phenylthieno[2,3-d]pyrimidin-4-yl)-3,6-dihydropyridin-1(2H)-yl)methyl)-1-thioxoisoindolin-2-yl)piperidine-2,6-dione] | 60 to 80 | 80 to 100 | B (80%< substrate protein remaining %≤ 100%) | B (80%< substrate protein remaining %≤ 100%) | B (80%< substrate protein remaining %≤ 100%) | B (80%< substrate protein remaining %≤ 100%) | A (0% ≤ substrate protein remaining % ≤ 80%) | B (80%< substrate protein remaining %≤ 100%)
4 | Cc1nc(C2=CCN(Cc3cccc4c3CN(C3CCC(=O)NC3=O)C4=S)CC2)c2ccsc2n1 (stereo not shown) [GT-08959, 3-(4-((4-(2-methylthieno[2,3-d]pyrimidin-4-yl)-3,6-dihydropyridin-1(2H)-yl)methyl)-1-thioxoisoindolin-2-yl)piperidine-2,6-dione] | 60 to 80 | 80 to 100 | B (80%< substrate protein remaining %≤ 100%) | B (80%< substrate protein remaining %≤ 100%) | B (80%< substrate protein remaining %≤ 100%) | B (80%< substrate protein remaining %≤ 100%) | A (0% ≤ substrate protein remaining % ≤ 80%) | B (80%< substrate protein remaining %≤ 100%)
5 | Cc1nc(C2=CCN(Cc3cccc4c3CN(C3CCC(=O)NC3=O)C4=S)CC2)c2c3c(sc2n1)CCCC3 (stereo not shown) [GT-08961, 3-(4-((4-(2-methyl-5,6,7,8-tetrahydrobenzo[4,5]thieno[2,3-d]pyrimidin-4-yl)-3,6-dihydropyridin-1(2H)-yl)methyl)-1-thioxoisoindolin-2-yl)piperidine-2,6-dione] | 40 to 53 | 80 to 100 | B (80%< substrate protein remaining %≤ 100%) | B (80%< substrate protein remaining %≤ 100%) | B (80%< substrate protein remaining %≤ 100%) | B (80%< substrate protein remaining %≤ 100%) | A (0% ≤ substrate protein remaining % ≤ 80%) | B (80%< substrate protein remaining %≤ 100%)
6 | O=C1CCC(N2Cc3c(CN4CC=C(c5ncnc6sc7c(c56)CCC7)CC4)cccc3C2=S)C(=O)N1 (stereo not shown) [GT-08963, 3-(4-((4-(6,7-dihydro-5H-cyclopenta[4,5]thieno[2,3-d]pyrimidin-4-yl)-3,6-dihydropyridin-1(2H)-yl)methyl)-1-thioxoisoindolin-2-yl)piperidine-2,6-dione] | 60 to 80 | 80 to 100 | B (80%< substrate protein remaining %≤ 100%) | B (80%< substrate protein remaining %≤ 100%) | B (80%< substrate protein remaining %≤ 100%) | B (80%< substrate protein remaining %≤ 100%) | A (0% ≤ substrate protein remaining % ≤ 80%) | B (80%< substrate protein remaining %≤ 100%)
7 | Cc1nc(C2=CCN(Cc3cccc4c3CN(C3CCC(=O)NC3=O)C4=S)CC2)c2c3c(sc2n1)CCC3 (stereo not shown) [GT-08964, 3-(4-((4-(2-methyl-6,7-dihydro-5H-cyclopenta[4,5]thieno[2,3-d]pyrimidin-4-yl)-3,6-dihydropyridin-1(2H)-yl)methyl)-1-thioxoisoindolin-2-yl)piperidine-2,6-dione] | 53 to 60 | 80 to 100 | B (80%< substrate protein remaining %≤ 100%) | B (80%< substrate protein remaining %≤ 100%) | B (80%< substrate protein remaining %≤ 100%) | B (80%< substrate protein remaining %≤ 100%) | A (0% ≤ substrate protein remaining % ≤ 80%) | B (80%< substrate protein remaining %≤ 100%)

Now from value to molecule, other results behind:

Row | inhibition at 0.5 µM [1] [%] | inhibition at 2 µM [1] [%] | Compound | CK1α substrate protein remaining % (CK1α) | IKZF 1 substrate protein remaining % (IKZF1) | IKZF2 substrate protein remaining % (IKZF2) | IKZF3 substrate protein remaining % (IKZF3) | Wee1 substrate protein remaining % (WEE1) | GSPT1 substrate protein remaining % (GSPT1)
8 | 80 to 100 | 80 to 100 | O=C1CCC(N2Cc3c(CN4CCN(c5nc(Cl)nc6c5SCC6)CC4)cccc3C2=S)C(=O)N1 (stereo not shown) [GT-08966, 3-(4-((4-(2-chloro-6,7-dihydrothieno[3,2-d]pyrimidin-4-yl)piperazin-1-yl)methyl)-1-thioxoisoindolin-2-yl)piperidine-2,6-dione] | B (80%< substrate protein remaining %≤ 100%) | B (80%< substrate protein remaining %≤ 100%) | B (80%< substrate protein remaining %≤ 100%) | B (80%< substrate protein remaining %≤ 100%) | B (80%< substrate protein remaining %≤ 100%) | A (0% ≤ substrate protein remaining % ≤ 80%)
9 | 60 to 80 | 80 to 100 | O=C1CCC(N2Cc3c(CN4CCN(c5nc(N6CCOCC6)nc6c5SCC6)CC4)cccc3C2=S)C(=O)N1 (stereo not shown) [GT-08968, 3-(4-((4-(2-morpholino-6,7-dihydrothieno[3,2-d]pyrimidin-4-yl)piperazin-1-yl)methyl)-1-thioxoisoindolin-2-yl)piperidine-2,6-dione] | B (80%< substrate protein remaining %≤ 100%) | B (80%< substrate protein remaining %≤ 100%) | B (80%< substrate protein remaining %≤ 100%) | B (80%< substrate protein remaining %≤ 100%) | A (0% ≤ substrate protein remaining % ≤ 80%) | B (80%< substrate protein remaining %≤ 100%)
10 | 80 to 100 | 80 to 100 | O=C1CCC(N2Cc3c(CN4CCN(c5nc(Cl)nc6ccsc56)CC4)cccc3C2=S)C(=O)N1 (stereo not shown) [GT-08971, 3-(4-((4-(2-chlorothieno[3,2-d]pyrimidin-4-yl)piperazin-1-yl)methyl)-1-thioxoisoindolin-2-yl)piperidine-2,6-dione] | B (80%< substrate protein remaining %≤ 100%) | B (80%< substrate protein remaining %≤ 100%) | B (80%< substrate protein remaining %≤ 100%) | B (80%< substrate protein remaining %≤ 100%) | A (0% ≤ substrate protein remaining % ≤ 80%) | B (80%< substrate protein remaining %≤ 100%)
11 | 40 to 53 | 80 to 100 | O=C1CCC(N2Cc3c(CN4CCN(c5nc(N6CCOCC6)nc6ccsc56)CC4)cccc3C2=S)C(=O)N1 (stereo not shown) [GT-09032, 3-(4-((4-(2-morpholinothieno[3,2-d]pyrimidin-4-yl)piperazin-1-yl)methyl)-1-thioxoisoindolin-2-yl)piperidine-2,6-dione] | B (80%< substrate protein remaining %≤ 100%) | B (80%< substrate protein remaining %≤ 100%) | B (80%< substrate protein remaining %≤ 100%) | B (80%< substrate protein remaining %≤ 100%) | A (0% ≤ substrate protein remaining % ≤ 80%) | B (80%< substrate protein remaining %≤ 100%)
